Patent US10556898B2, “Indazolyl-1,2,4-thiadiazolamines and related compounds for inhibition of Rho-associated protein kinase and the treatment of disease” (Lycera Corporation, priority 2016, dated 2020)
Read-outs that look alike come from different tables or passages of the source.

Experiments:
[1] = biological target: T1, GST-tagged human ROCK1 catalytic domain 1-477 (Homo sapiens, UniProt Q13464); assay: Isolated Enzyme Assay, ROCK1 (LANCE Ultra ULight-CREBtide FRET); type: biochemical; details: 30 μM highest concentration tested, read-out: Results from Isolated Enzyme Assay IC50 (μM) ROCK1
T1 construct: human ROCK1 catalytic domain 1-477 from Carna Biosciences (cat #01-109); purchased Carna Biosciences 01-109; host or cells: baculovirus expression system
Method: (§1) Exemplary compounds were tested for ability to inhibit Rho-associated protein kinase isoform 1 (ROCK1) and Rho-associated protein kinase isoform 2 (ROCK2). Assay procedures and results are described below.
(§2) Part I—Procedure for Determining ROCK Inhibition Ability of Test Compounds Using an Isolated Enzyme Assay
(§3) Protein constructs were purified from a baculovirus expression system. The peptide substrate was fluorescent LANCE® Ultra ULight-CREBtide: […] (PerkinElmer, # TRF0107-D). Kinase reactions were carried out in a 10 μL volume in 384-well plates: 50 nM ULight-CREBtide substrate, 2 nM constitutively active ROCK1 or ROCK2 kinase, and test compound in DMSO (or DMSO only for controls) were diluted into assay buffer containing 50 mM Tris-HCl (pH=7.5), 10 mM MgCl2, 1 mM EGTA, 0.01% Tween-20, and 2 mM DTT such that the final concentration of DMSO was 0.5%. After a 90 minute incubation at room temperature on a shaker table, the kinase reaction was stopped by addition of 10 mM EDTA, and phosphorylation of the substrate was detected by adding 1 nM LANCE® Ultra Europium-anti-phospho-CREB (ser133) antibody (PerkinElmer, # TRF0200-D) and incubating for 60 minutes on a shaker at room temperature. The fluorescence resonance energy transfer (FRET) signals were read and analyzed on an Envision™ 2103 Multilabel Reader (Perkin Elmer). The concentration of test compound required to inhibit substrate phosphorylation by 50% (the IC50) was calculated by non-linear regression using GraphPad PRIZM.

[2] = biological target: T2, GST-tagged human ROCK2 catalytic domain 1-553 (Homo sapiens, UniProt O75116); assay: Isolated Enzyme Assay, ROCK2 (LANCE Ultra ULight-CREBtide FRET); type: biochemical; details: 30 μM highest concentration tested, read-out: Results from Isolated Enzyme Assay IC50 (μM) ROCK2
T2 construct: GST-tagged human ROCK2 catalytic domain 1-553 from Carna Biosciences (Cat #01-110); purchased Carna Biosciences 01-110; host or cells: baculovirus expression system
Method: as §1, §2, §3

ROCK2 = biological target: T3, ROCK2 (Homo sapiens, UniProt O75116); assay: Cell-Based Assay, ROCK2 (HAP1 knockout cells, phospho-MYPT1 Thr853 ELISA); details: read-out: Results from Cell-Based Assay IC50 (μM) ROCK2
T3 construct: endogenous in cells; host or cells: HAP1 knockout cells
Method: Part II—Procedure for Determining ROCK Inhibition Ability of Test Compounds Using a Cell-Base Assay
The Cell-Based Assay for determining ROCK inhibition ability of test compounds utilized a genetically modified HAP1 cell line engineered to eliminate expression of either ROCK1 or ROCK2. In the procedure, HAP1 knockout cells are grown in Iscove's Modified Dulbecco's Medium that is additionally supplemented with 10% fetal bovine and 1x antibiotic-antimycotic mixture. Cells are plated in 96 well tissue culture plates at 1×10^5 cells/well (100 μL, of cells at 1×10^6/mL). Test compounds are solubilized in DMSO and diluted into the same media used to grow the cells. A 100 μL, aliquot of each compound dilution in media is added to each well containing the HAP1 cells and incubated at 37° C. for 30 minutes. Following compound incubation, the cells are pelleted by centrifugation at 1800 rpm for 5 minutes at 4° C. Media is removed from the cell pellet and the cells lysed and de-salted. An 80 μL, aliquot of each cell lysate is added to a single well of a 96-well high binding ELISA plate which has been pre-coated with a MYPT1 capture antibody and incubated at 4° C. overnight. The following day the ELISA plate is washed 4× with 0.05% Tween-20 in PBS. After washing, an anti-phospho-MYPT1 (Thr853) antibody is added and allowed to bind for 1 hour at room temperature. The wash step is repeated, and then an anti-rabbit HRP detection antibody is added and allowed to incubate at room temperature for 1 hour. The wash step is then repeated and 100 μL/well 1-Step™ Ultra TMB substrate is added to the ELISA plate and allowed to develop for approximately 5 minutes. The reaction is stopped by addition of H2SO4. Absorbance is read at 450 OD. Data is analyzed using GraphPad Prism software to calculate the 50% inhibitory concentration of test compound (IC50).

[3] = phospho-MYPT1, 30 μM highest concentration tested

T3 sequence (O75116 whole entry): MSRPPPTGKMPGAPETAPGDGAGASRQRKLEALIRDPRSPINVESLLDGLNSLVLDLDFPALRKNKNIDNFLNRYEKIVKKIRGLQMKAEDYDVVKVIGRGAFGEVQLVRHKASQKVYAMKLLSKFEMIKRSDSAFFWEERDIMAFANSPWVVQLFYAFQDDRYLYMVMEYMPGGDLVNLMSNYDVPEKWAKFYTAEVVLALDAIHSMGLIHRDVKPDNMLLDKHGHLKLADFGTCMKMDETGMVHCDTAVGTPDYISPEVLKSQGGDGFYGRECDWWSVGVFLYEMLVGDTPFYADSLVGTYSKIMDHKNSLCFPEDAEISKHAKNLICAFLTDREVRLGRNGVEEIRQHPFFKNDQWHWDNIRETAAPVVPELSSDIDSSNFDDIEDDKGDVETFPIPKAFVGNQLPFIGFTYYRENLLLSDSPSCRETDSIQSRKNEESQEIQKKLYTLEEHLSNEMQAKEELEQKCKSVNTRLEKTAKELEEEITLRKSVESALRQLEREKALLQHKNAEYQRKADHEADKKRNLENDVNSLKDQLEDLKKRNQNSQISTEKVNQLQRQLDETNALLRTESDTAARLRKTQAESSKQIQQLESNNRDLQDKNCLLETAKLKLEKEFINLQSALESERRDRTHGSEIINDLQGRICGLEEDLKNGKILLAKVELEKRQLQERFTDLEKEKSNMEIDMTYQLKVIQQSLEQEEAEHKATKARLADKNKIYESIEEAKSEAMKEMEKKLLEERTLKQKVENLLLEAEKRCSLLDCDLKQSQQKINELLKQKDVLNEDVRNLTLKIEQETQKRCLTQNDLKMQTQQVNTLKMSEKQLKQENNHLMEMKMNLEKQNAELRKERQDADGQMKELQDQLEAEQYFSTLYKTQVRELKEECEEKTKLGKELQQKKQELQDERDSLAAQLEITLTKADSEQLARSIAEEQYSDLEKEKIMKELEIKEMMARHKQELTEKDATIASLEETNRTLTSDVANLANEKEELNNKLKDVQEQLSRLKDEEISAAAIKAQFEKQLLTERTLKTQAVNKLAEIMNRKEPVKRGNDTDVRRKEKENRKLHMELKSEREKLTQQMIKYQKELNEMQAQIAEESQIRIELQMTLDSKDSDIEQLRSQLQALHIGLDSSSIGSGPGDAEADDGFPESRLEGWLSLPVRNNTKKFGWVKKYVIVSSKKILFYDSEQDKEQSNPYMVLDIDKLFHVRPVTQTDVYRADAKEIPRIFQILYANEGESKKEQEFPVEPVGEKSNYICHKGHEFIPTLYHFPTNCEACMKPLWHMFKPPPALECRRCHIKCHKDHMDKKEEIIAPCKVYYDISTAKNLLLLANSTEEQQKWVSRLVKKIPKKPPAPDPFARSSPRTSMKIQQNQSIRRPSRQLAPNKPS
T1 sequence (Q13464 1-477): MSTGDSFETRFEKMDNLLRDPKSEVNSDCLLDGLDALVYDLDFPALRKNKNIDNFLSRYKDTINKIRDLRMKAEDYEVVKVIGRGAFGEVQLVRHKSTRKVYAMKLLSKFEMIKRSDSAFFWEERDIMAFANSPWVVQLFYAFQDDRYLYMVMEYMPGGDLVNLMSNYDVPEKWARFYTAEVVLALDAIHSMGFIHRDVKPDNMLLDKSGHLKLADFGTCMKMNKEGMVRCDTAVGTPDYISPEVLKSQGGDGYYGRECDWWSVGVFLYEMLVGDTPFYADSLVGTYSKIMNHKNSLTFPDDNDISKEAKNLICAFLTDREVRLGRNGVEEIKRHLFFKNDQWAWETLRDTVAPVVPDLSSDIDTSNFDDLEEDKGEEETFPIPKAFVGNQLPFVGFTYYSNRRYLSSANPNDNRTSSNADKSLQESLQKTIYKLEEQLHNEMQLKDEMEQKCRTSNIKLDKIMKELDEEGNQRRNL
T2 sequence (O75116 1-553): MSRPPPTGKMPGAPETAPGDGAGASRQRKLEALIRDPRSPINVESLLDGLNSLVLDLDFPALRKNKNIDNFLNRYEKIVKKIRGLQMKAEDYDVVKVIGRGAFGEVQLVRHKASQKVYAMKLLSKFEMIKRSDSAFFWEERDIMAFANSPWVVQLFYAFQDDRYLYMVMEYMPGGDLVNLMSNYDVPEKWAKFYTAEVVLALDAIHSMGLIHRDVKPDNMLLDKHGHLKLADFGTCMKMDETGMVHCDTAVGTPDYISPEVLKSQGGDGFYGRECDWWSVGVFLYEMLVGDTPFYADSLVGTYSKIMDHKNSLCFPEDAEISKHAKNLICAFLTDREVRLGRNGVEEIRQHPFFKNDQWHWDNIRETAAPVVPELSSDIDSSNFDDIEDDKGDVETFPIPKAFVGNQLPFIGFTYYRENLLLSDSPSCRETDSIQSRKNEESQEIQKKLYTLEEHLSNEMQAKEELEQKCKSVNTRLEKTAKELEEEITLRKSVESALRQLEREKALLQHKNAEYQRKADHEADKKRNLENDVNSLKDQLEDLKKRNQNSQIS

SMILES | IC50 ([1]; isolated enzyme assay) | IC50 ([2]; isolated enzyme assay) | other results
Cn1nccc1C(=O)Nc1cc(-c2nsc(Nc3ccc4[nH]ncc4c3Cl)n2)ccn1 [Compound A-9] | – | – | IC50 ([1]; isolated enzyme): > 30 µM; IC50 ([2]; isolated enzyme): < 1 µM; IC50 (ROCK2; [3]): < 1 µM
COc1ccc(C(=O)Nc2cc(-c3nsc(Nc4ccc5[nH]ncc5c4Cl)n3)ccn2)cc1 [IV-108] | > 30 µM | < 1 µM | IC50 (ROCK2; class symbols): 1 to 15 µM
Cn1cnc(C(=O)Nc2cc(-c3nsc(Nc4ccc5[nH]ncc5c4Cl)n3)ccn2)c1 [IV-29] | > 30 µM | < 1 µM | IC50 (ROCK2; numeric bound): > 10 µM
O=C(NC1CCC1)c1cc(-c2nsc(Nc3ccc4[nH]ncc4c3Cl)n2)ccc1F [IV-30] | < 1 µM | < 1 µM | IC50 (ROCK2; class symbols): < 1 µM
COc1ncc(-c2nsc(Nc3ccc4[nH]ncc4c3Cl)n2)cc1NC(=O)c1ccnn1C [IV-106] | > 30 µM | > 30 µM | IC50 (ROCK2; numeric bound): > 10 µM
O=C(Nc1cccc(-c2nsc(Nc3ccc4[nH]ncc4c3Cl)n2)c1)c1cnco1 [Compound A-17] | – | – | IC50 ([1]; isolated enzyme): < 1 µM; IC50 ([2]; isolated enzyme): < 1 µM; IC50 (ROCK2; [3]): < 1 µM
Cn1cnc(C(=O)Nc2cccc(-c3nsc(Nc4ccc5[nH]ncc5c4Cl)n3)c2)c1 [Compound A-22] | – | – | IC50 ([1]; isolated enzyme): < 1 µM; IC50 ([2]; isolated enzyme): < 1 µM; IC50 (ROCK2; [3]): < 1 µM
COc1cccc(C(=O)Nc2cncc(-c3nsc(Nc4ccc5[nH]ncc5c4Cl)n3)c2)c1 [IV-101] | > 30 µM | > 30 µM | IC50 (ROCK2; numeric bound): > 10 µM
Cn1nc(C(=O)Nc2cccc(-c3nsc(Nc4ccc5[nH]ncc5c4Cl)n3)c2)cc1C(F)(F)F [Compound A-13] | – | – | IC50 ([1]; isolated enzyme): < 1 µM; IC50 ([2]; isolated enzyme): < 1 µM; IC50 (ROCK2; [3]): < 1 µM
O=C(c1cccc(-c2nsc(Nc3ccc4[nH]ncc4c3Cl)n2)c1)N1CCOCC1 [IV-80] | 1 to 15 µM | 1 to 15 µM | –
O=C1CCCN1c1cc(-c2nsc(Nc3ccc4[nH]ncc4c3Cl)n2)cn2ccnc12 [IV-92] | > 30 µM | > 30 µM | –
O=C(Nc1cc(-c2nsc(Nc3ccc4[nH]ncc4c3Cl)n2)ccn1)c1cocn1 [IV-96] | > 30 µM | > 30 µM | –
O=c1ccccn1-c1cccc(-c2nsc(Nc3ccc4[nH]ncc4c3Cl)n2)c1 [IV-53] | 1 to 15 µM | 1 to 15 µM | –
O=C(c1cccc(-c2nsc(Nc3ccc4[nH]ncc4c3Cl)n2)c1)N1CCc2ccccc2C1 [IV-84] | > 30 µM | < 1 µM | –
O=S(=O)(Nc1cccc(-c2nsc(Nc3ccc4[nH]ncc4c3Cl)n2)c1)c1cccnc1 [IV-40] | > 30 µM | 1 to 15 µM | –
CN(C)CCn1cnc2c(-c3nsc(Nc4ccc5[nH]ncc5c4Cl)n3)cccc21 [IV-67] | 1 to 15 µM | 1 to 15 µM | –
CN(C)C(=O)c1cccc(-c2nsc(Nc3ccc4[nH]ncc4c3Cl)n2)c1 [IV-87] | > 30 µM | 1 to 15 µM | –
O=C(c1cccc(-c2nsc(Nc3ccc4[nH]ncc4c3Cl)n2)c1)N1CCCC1 [IV-86] | 1 to 15 µM | 1 to 15 µM | –
NC[C@@H]1CCCN1c1nsc(Nc2ccc3[nH]ncc3c2Cl)n1 [IV-109] | 15 to 30 µM | > 30 µM | –
Cc1nc2ccccc2c(=O)n1-c1cccc(-c2nsc(Nc3ccc4[nH]ncc4c3Cl)n2)c1 [IV-111] | > 30 µM | 1 to 15 µM | –
O=C(Nc1cccc(-c2nsc(Nc3ccc4[nH]ncc4c3)n2)c1)c1cccnc1 [Compound A-2] | – | – | IC50 ([1]; isolated enzyme): > 30 µM; IC50 ([2]; isolated enzyme): < 1 µM
